Experimental data published in ChEMBL document CHEMBL3137667, “[Drug-induced liver injury; fourteenth updated edition of the bibliographic database of liver injuries and related drugs]” (Gastroenterol Clin Biol, 2004).

How the values were obtained:
[1] = Highest frequency of moderate liver toxicity observed during clinical trials, expressed as a percentage. [column '% BIOL' in source]; details: human
[2] = Highest frequency of acute liver toxicity observed during clinical trials, expressed as a percentage. [column '% AIGUE' in source]; details: human
[3] = Presence of at least one case with successful reintroduction. [column 'REINT' in source]; details: human
[4] = Comments (NB not yet translated). [column 'COMMENTAIRES' in source]; details: human
[5] = Times to onset, minimal and maximal, observed in the indexed observations. [column 'DELAI' in source]; details: human
[6] = human, serum
[7] = human, serum; remark: listed apart in the source
[8] = human
[9] = human; remark: listed apart in the source
[10] = human; remark: listed apart in the source
[11] = human, serum, 4383 h
[12] = human; remark: listed apart in the source
[13] = human; remark: listed apart in the source
[14] = human; remark: listed apart in the source
[15] = human; remark: listed apart in the source
[16] = human; remark: listed apart in the source
[17] = human; remark: listed apart in the source
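Wherever Hepatotoxicity (association with vascular disease) is given: count of indexed literature references reporting vascular liver injury in humans, e.g. peliosis hepatitis, hepatic veno-occlusive disease or Budd-Chiari syndrome.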
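Wherever Hepatotoxicity (benign tumour) is given: value is a count of indexed literature references citing a benign tumour confirmed by histopathology.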
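Wherever Hepatotoxicity (choleostasis) is given: human cholestatic liver injury, shown by histopathology or by peak ALT or AST elevation over alkaline phosphatase ratio below 2, value counts indexed literature reports.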
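Wherever Hepatotoxicity (chronic liver disease) is given: chronic liver injury confirmed by histopathology or persistently raised serum aminotransferase activity beyond 6 months, value given as the count of indexed literature references.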
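Wherever Hepatotoxicity (cirrhosis) is given: value is a count of indexed literature references reporting cirrhosis confirmed by histopathology.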
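Wherever Hepatotoxicity (cytolytic) is given: human cytolytic liver injury, shown by histopathology or by a ratio above 5 of peak ALT or AST elevation to alkaline phosphatase elevation, value counts indexed references.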
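Wherever Hepatotoxicity (granulomatous hepatitis) is given: value is a count of indexed literature references reporting granulomatous liver disease confirmed by histopathology.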
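Wherever Hepatotoxicity (malignant tumour) is given: malignant tumour confirmed by histopathology, value gives the count of indexed literature references reporting it.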
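Wherever Hepatotoxicity (severe hepatitis) is given: human clinical data: severe hepatitis, meaning potentially life-threatening liver failure or clinically observed cases, the value counts how many indexed literature references report it.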
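Wherever Hepatotoxicity (steatosis) is given: steatosis confirmed by histopathology, value is the count of indexed references.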

SMILES | Hepatotoxicity (moderate) [1] [%] | Hepatotoxicity (acute) [2] [%] | Hepatotoxicity (successful reintroduction) [3] | Hepatotoxicity (comment) [4] | Hepatotoxicity (time to onset) [5] | Hepatotoxicity (moderate) [6] | Hepatotoxicity (acute) [7] | Hepatotoxicity (cytolytic) [8] | Hepatotoxicity (choleostasis) [9] | Hepatotoxicity (severe hepatitis) [10] | Hepatotoxicity (chronic liver disease) [11] | Hepatotoxicity (cirrhosis) [12] | Hepatotoxicity (granulomatous hepatitis) [13] | Hepatotoxicity (association with vascular disease) [14] | Hepatotoxicity (steatosis) [15] | Hepatotoxicity (malignant tumour) [16] | Hepatotoxicity (benign tumour) [17] | Hepatotoxicity (moderate) ([1]; Liver) [%] | Hepatotoxicity (acute) ([2]; Liver) [%] | Hepatotoxicity (severe hepatitis) ([10]; Liver) | also measured
Nc1cc([As]2[As](c3ccc(O)c(N)c3)[As](c3ccc(O)c(N)c3)[As](c3ccc(O)c(N)c3)[As]2c2ccc(O)c(N)c2)ccc1O.Nc1cc([As]2[As](c3ccc(O)c(N)c3)[As]2c2ccc(O)c(N)c2)ccc1O (stereo not drawn) | 0 | 0 | yes | CHOLESTASE_PROLONGEE CHOLANGITE | 1 week - 1 year | 0 | 6 | 1 | 1 | 1 | 0 | 0 | 0 | 0 | 0 | 0 | 0 | – | – | – | –
CC(C)(C)NC(=O)[C@@H]1CN(Cc2cccnc2)CCN1C[C@@H](O)C[C@@H](Cc1ccccc1)C(=O)N[C@H]1c2ccccc2C[C@H]1O.O | – | – | yes | REACTIVATION_HVB/HVC LITHIASE | 5 hours - 19 months | 5 | 12 | 8 | 0 | – | 0 | 0 | 0 | 0 | 3 | 0 | 0 | 8 | 9.1 | 4 | –
CC(=O)CC(c1ccc([N+](=O)[O-])cc1)c1c(O)c2ccccc2oc1=O (stereo not drawn) [ACENOCOUMAROL] | 0 | 0 | yes | RC/PHENPROCOUMON CHOLESTASE_PROLONGEE | 2 days - 5 years | 2 | 8 | 3 | 6 | 0 | 1 | 0 | 0 | 0 | 0 | 0 | 0 | – | – | – | –
CCN(CCCc1ccccc1)CCCc1ccccc1 [ALVERINE] | 0 | 0 | yes | AC_ANTI-N | 4 days - 40 days | 0 | 2 | 2 | 0 | 0 | 0 | 0 | 0 | 0 | 0 | 0 | 0 | – | – | – | –
CC(NC(C)(C)C)C(=O)c1cccc(Cl)c1 (stereo not drawn) [BUPROPION] | – | – | yes | PERICHOLANGITE | 4 days - 80 days | 1 | 4 | 4 | 2 | – | 0 | 0 | 0 | 0 | 0 | 0 | 0 | 0 | 0 | 1 | –
O=C(N[C@H](CO)[C@H](O)c1ccc([N+](=O)[O-])cc1)C(Cl)Cl [CHLORAMPHENICOL] | 46.2 | 7.7 | yes | RC/COTRIMOXAZOLE | 1 month - 2 months | 1 | 14 | 2 | 1 | 0 | 0 | 0 | 0 | 0 | 1 | 0 | 0 | – | – | – | –
C[C@]12CC[C@@H]3c4ccc(OC(=O)N(CCCl)CCCl)cc4CC[C@H]3[C@@H]1CC[C@@H]2O [ESTRAMUSTINE] | 2 | 2 | yes | NASH | 1 month | 3 | 2 | 1 | 0 | 0 | 1 | 0 | 0 | 0 | 1 | 0 | 0 | – | – | – | –
CCOC(=O)/C=C(C)/C=C/C=C(C)/C=C/c1c(C)cc(OC)c(C)c1C [ETRETINATE] | 33 | 1.5 | yes | I/METHOTREXATE CHOLANGITE | 1 week - 1 year | 31 | 20 | 12 | 6 | 2 | 7 | 1 | 1 | 0 | 5 | 0 | 0 | – | – | – | –
NC(N)=Nc1nc(CSCCC(N)=NS(N)(=O)=O)cs1 [FAMOTIDINE] | – | – | yes | RC/CIMETIDINE | 3 days - 3 weeks | 12 | 5 | – | – | – | 0 | 0 | – | 0 | 0 | 0 | 0 | 2.8 | 0 | 0 | Hepatotoxicity (cytolytic) ([8]; Liver): 4; Hepatotoxicity (choleostasis) ([9]; Liver): 0; Hepatotoxicity (granulomatous hepatitis) ([13]; Liver): 0
